SMILES strings stand for the structures.

A short description of data set [1]: Induction of human granulocyte phagocytosis at 10 to 100 ug/mL. Type of data set: functional.
A short description of data set [2]: Cytotoxicity against human granulocytes upto 100 ug/mL.

Turning to `C[C@H]1O[C@@H](OC(=O)[C@]23CCC(C)(C)C[C@H]2C2=CC[C@@H]4[C@@]5(C)C[C@H](O)C(O[C@@H]6O[C@H](CO)[C@@H](O)[C@H](O)[C@H]6O)[C@@](C)(C(=O)O)[C@@H]5CC[C@@]4(C)[C@]2(CO)CC3)[C@H](O[C@@H]2O[C@H](C)[C@H](O[C@@H]3OC[C@@H](O)[C@H](O[C@@H]4O[C@H](CO)[C@H](O)[C@H](O)[C@H]4O)[C@H]3O)[C@@H](O)[C@H]2O)[C@@H](O[C@@H]2O[C@H](CO)[C@@H](O)[C@H](O)[C@H]2O)[C@H]1O` (some centres not stated), the values for the Activity in data set [1] and in data set [2] were 60% and “Non-toxic”, respectively.
